Measurements as given in patent publication US7186879B2, “Screening systems and methods for identifying modulators of xenobiotic metabolism” (Baylor College of Medicine, priority 2001, dated 2007).

Legend:
[1] = system: CYP2E1, CYP1A2, CYP3A11, GSTPi; assay: Northern blot of APAP metabolizing genes in liver of wild-type and CAR null mice; conditions: for suppression of CYP2E1 and induction of CYP1A2, CYP3A11, GSTPi: CAR null mice; for CYP1A2 mRNA / CYP2E1 mRNA levels / CYP3A11 mRNA / GSTPi mRNA: wild-type animals, three days pretreatment
Method: CAR (+/+) or CAR (−/−) animals pretreated with phenobarbital (PB), TCPOBOP (TC), or vehicle alone were administered a 250 mg/kg dose of APAP by intraperitoneal injection (n=5–7 per treatment group) (FIG. 11A). […] Liver sections from different treatments were examined by histological staining (FIG. 11B). Liver samples from all treated animals were analyzed but only representative histology is presented. […] CAR (+/+) or CAR (−/−) animals were pretreated with PB, TCPOBOP (TC), or vehicle alone for three days (FIG. 11C). […] Liver samples treated as indicated were collected two hours after APAP and GSH levels were measured (n=5–7) (FIG. 11D).
CAR (+/+) and CAR (−/−) animals were given 250 mg/kg, 500 mg/kg, or 800 mg/kg doses of APAP, respectively (FIG. 12A). […] Total liver RNA was prepared from 500 mg/kg APAP treated CAR (+/+) and CAR (−/−) livers at 0 and 2 hours as indicated. […] The same blot was stripped and re-probed with β-actin as loading control.
For histologic examination of the treated mice, the left lobe of the livers was removed and immediately fixed in 4% formaldehyde-PBS solution, embedded in paraffin, sectioned at 5 μm, and stained with hematoxylin and eosin. Samples were examined under a light microscope. For RNA studies, total RNA was extracted using TRIzol Reagent (Invitrogen Life Technologies, Carlsbad, Calif.) according to the manufacture's instruction. Equivalent amount of RNA from 3–5 mice were pooled and 10 μg of each sample was subjected to northern blot analysis. […] Hepatic non-protein thiol was measured as an indication of hepatic GSH content. Mice were sacrificed two hours after intraperitoneal injection with APAP. […] Supernatant (0.5 ml) was mixed with 1.5 ml 0.1 mM Ellman's reagent [5,5′-dithio-bis(2-nitrobenzoic acid)] […] Absorbance was read at 412 nm using GSH solutions as quantitative standards.

CYP2B10 [2] = assay: Northern blot of CYP2B10 mRNA in liver of wild-type and CAR knockout mice
Method: (§1) At least three mice between about 8–10 weeks old were used for each treatment. Mice were pretreated by intraperitoneal injection with corn oil, PB (100 mg/kg, Sigma), or TCBOPOP (3 mg/kg) for the indicated time. For a three day PB treatment, mice were injected intraperitoneally three times with PB, at one injection per day.
Approximately 20 μg of total RNA from individual mouse livers was subjected to Northern blot analysis (FIG. 1C). A mouse CAR cDNA probe was used to reveal the absence of CAR transcripts in the CAR null mice. Probes for CYP2B10 were prepared by RT-PCR with mouse liver total RNA using Superscript One-step RT-PCR System (Life Technologies).

CYP3A11 = assay: Northern blot of CYP3A11 mRNA in liver; conditions: for induction of CYP311: CAR −/− mice; for induction of murine CYP3A11 mRNA: wild-type mice
Method: as §1

CYP2B10 [3] = assay: In situ hybridization of CYP2B10 in small intestine; conditions: for CYP2B10 expression in the small intestine: 3 days treatment; for number of grains per cell, with or without treatment: CAR −/− animals; for number of grains per cell, with or without treatment / number of grains per cell, treated versus untreated: small intestine
hepatic GSH = assay: Hepatic GSH content (non-protein thiol); type: in vivo, mouse; conditions: for hepatic GSH levels versus vehicle CAR (+/+) and pretreated CAR (−/−) animals: pretreated wild-type animals, two hours after APAP; for decrease in hepatic GSH: pretreated wild-type mice, two hours after APAP 250 mg/kg
Method: CAR (+/+) or CAR (−/−) animals pretreated with phenobarbital (PB), TCPOBOP (TC), or vehicle alone were administered a 250 mg/kg dose of APAP by intraperitoneal injection (n=5–7 per treatment group) (FIG. 11A). Serum was collected and alanine aminotransferase (ALT) levels were measured after 24 hours. Liver sections from different treatments were examined by histological staining (FIG. 11B). Liver samples from all treated animals were analyzed but only representative histology is presented. […] CAR (+/+) or CAR (−/−) animals were pretreated with PB, TCPOBOP (TC), or vehicle alone for three days (FIG. 11C). […] Liver samples treated as indicated were collected two hours after APAP and GSH levels were measured (n=5–7) (FIG. 11D).
FIG. 15A is a picture of the histological staining of liver sections after two hours of 500 mg/kg APAP treatment. Liver sections from animals injected with 500 mg/kg APAP for 0 or 2 hours were stained with hematoxylin and eosin. Arrows indicate initial stages of necrosis surrounding central veins. The same liver samples were collected and GSH levels were measured at 0 and 2 hours as indicated. FIG. 15B is a graph of these GSH levels.
For histologic examination of the treated mice, the left lobe of the livers was removed and immediately fixed in 4% formaldehyde-PBS solution, embedded in paraffin, sectioned at 5 μm, and stained with hematoxylin and eosin. Samples were examined under a light microscope. For RNA studies, total RNA was extracted using TRIzol Reagent (Invitrogen Life Technologies, Carlsbad, Calif.) according to the manufacture's instruction. Equivalent amount of RNA from 3–5 mice were pooled and 10 μg of each sample was subjected to northern blot analysis. […] Preparation of probes for CYP2B10 and CYP3A11 were described as previously (Wei et al., Nature 407:920–923, 2000 and Zelko et al., Mol Cell Biol 21:2838–2846, 2001). PCR primers used were: CYP1A2: 5′-[…]-3′ (SEQ ID NO: 19) and 5′-[…]-3′ (SEQ ID NO: 20), CYP2E1: 5′-[…]-3′ (SEQ ID NO: 21) and 5′-[…]-3′ (SEQ ID NO: 22), GSTPi: 5′-[…]-3′ (SEQ ID NO: 23) and 5′-[…]-3′ (SEQ ID NO: 24). Hepatic non-protein thiol was measured as an indication of hepatic GSH content. Mice were sacrificed two hours after intraperitoneal injection with APAP. Livers were removed and immediately homogenized in four volumes of 5% trichloroacetic acid and then centrifuged at 1,600×g for 15 minutes. Supernatant (0.5 ml) was mixed with 1.5 ml 0.1 mM Ellman's reagent [5,5′-dithio-bis(2-nitrobenzoic acid)] (Sigma, St Louis, Mo.) and allowed to stand at room temperature for 15 minutes. Absorbance was read at 412 nm using GSH solutions as quantitative standards.

CYP enzyme activity = assay: Zoxazolamine paralysis test; conditions: for effect of pretreatment on paralysis: CAR −/− mice; for duration of zoxazolamine-induced paralysis: 3-day pretreatment, zoxazolamine 300 mg/kg i.p.; for animals that died: female CAR −/− mice after zoxazolamine; for effect of pretreatment on duration of paralysis: wild-type animals
Method: In these experiments, mice were pretreated for three days with PB or TCPOBOP, after which time they were given a single intraperitoneal injection of zoxazolamine (300 mg/kg). Paralysis time was recorded as the time when the mice were able to right themselves repeatedly.

[4] = system: wild-type and CAR −/− mice; assay: Cocaine-mediated hepatotoxicity, serum ALT; conditions: for evidence of liver damage after cocaine: CAR −/− animals; for serum ALT as acute response to cocaine: male wild-type mice pretreated three days, cocaine 30 mg/kg
Method: FIG. 4 is a bar graph showing the effect of PB or TCPOBOP on cocaine-mediated hepatotoxicity, measured as serum alanine aminotransferase (ALT) activity. Male mice were pretreated with PB or TCPOBOP for three days. Twenty-four hours after the last dose, one injection of cocaine was given to the animals. Blood was drawn 20 hours after cocaine treatment for determination of serum ALT activity.
Blood was drawn from the eye for determination of serum ALT activity.

SMILES | suppression of CYP2E1 and induction of CYP1A2, CYP3A11, GSTPi [1] | CYP1A2 mRNA [1] | CYP2E1 mRNA levels [1] | CYP3A11 mRNA [1] | GSTPi mRNA [1] | induction of expression of CYP2B10 mRNA (CYP2B10 [2]; CAR knockout animals) | induction of expression of CYP2B10 mRNA (CYP2B10 [2]; wild-type male or female mice) | induction of CYP311 (CYP3A11) | induction of murine CYP3A11 mRNA (CYP3A11) | CYP2B10 expression in the small intestine (CYP2B10 [3]; CAR knockout mice) | number of grains per cell, with or without treatment (CYP2B10 [3]) | CYP2B10 expression in the small intestine (CYP2B10 [3]; wild-type mice) | number of grains per cell, treated versus untreated (CYP2B10 [3]; wild-type mice) | hepatic GSH levels versus vehicle CAR (+/+) and pretreated CAR (−/−) animals (hepatic GSH) | decrease in hepatic GSH (hepatic GSH) | effect of pretreatment on paralysis (CYP enzyme activity) | duration of zoxazolamine-induced paralysis (CYP enzyme activity; female CAR (+/+) mice) | duration of zoxazolamine-induced paralysis (CYP enzyme activity; female CAR (−/−) mice) | animals that died (CYP enzyme activity) | duration of zoxazolamine-induced paralysis (CYP enzyme activity; male CAR (+/+) mice) [min] | further results
CCC1(c2ccccc2)C(=O)NC(=O)NC1=O [PB, phenobarbital] | Neither the suppression of CYP2E1 nor the induction of the other enzymes was observed | induced | modestly suppressed | induced | induced | absent | robust induction | negligible level of induction | substantial induction | not detected | not significantly different | induced CYP2B10 expression | approximately two-fold higher | significantly different | approximately 50% | not affected | not paralyzed | died | two animals from each group | <20 | duration of zoxazolamine-induced paralysis (CYP enzyme activity; male CAR (−/−) mice): >300 min; effect of pretreatment on duration of paralysis (CYP enzyme activity): significantly decreased the duration of paralysis; evidence of liver damage after cocaine [4]: not observed; serum ALT as acute response to cocaine [4]: significant increase
Clc1cnc(Oc2ccc(Oc3ncc(Cl)cc3Cl)cc2)c(Cl)c1 [TCPOBOP, 1,4-bis[2-(3,5-dichloropyridyloxy)]benzene] | Neither the suppression of CYP2E1 nor the induction of the other enzymes was observed | induced | modestly suppressed | induced | induced | absent | robust induction | negligible level of induction | substantial induction | not detected | not significantly different | induced CYP2B10 expression | approximately two-fold higher | significantly different | approximately 50% | not affected | not paralyzed | died | two animals from each group | <20 | duration of zoxazolamine-induced paralysis (CYP enzyme activity; male CAR (−/−) mice): >300 min; effect of pretreatment on duration of paralysis (CYP enzyme activity): significantly decreased the duration of paralysis; evidence of liver damage after cocaine [4]: not observed; serum ALT as acute response to cocaine [4]: significant increase
